Consider one substance from patent US20100285611A1, “PHOTOBLEACHING RESISTANT PH SENSITIVE DYE NANOREACTORS WITH DUAL WAVELENGTH EMISSION” (priority 2009, published 2010).

Where two headings read alike, the source gives them in different places.

A short description of series [1]: Photobleaching under 300 W Xenon lamp. As to conditions: after 100 minutes; 300 W Xenon lamp 15 cm away; DI water pH 9; 30° C.; 640 nm. The class given is physicochemical. How it is done:
cSNARF-1 in DI water at pH 9 and the nanoreactors in the same solvent was placed into covered 1 cm-path length quartz cuvettes and kept at 30° C. using a circulating water bath while being continuously exposed to the emission of a 300 W Xenon lamp placed 15 cm away. […] The fluorescence intensity at 640 nm was recorded at 5 or 10 minute intervals.

A short description of series [2]: pH dependent fluorescence emission spectra of cSNARF-1 (modified Henderson-Hasselbalch analysis). The class given is physicochemical. How it is done:
Absorption spectra were obtained using a UV Mini 1240 spectrophotometer (Shimadzu Scientific Instruments, Columbia, Md.) in a 1-cm path length quartz cuvette. The total concentration of encapsulated cSNARF-1 in the suspensions was determined at pH 7 using the extinction coefficient of 27,000 L-mol-1-cm-1 at the absorbance maximum of 548 nm. Fluorescence spectra were obtained using a Cary Eclipse fluorescence spectrophotometer (Varian, Walnut Creek, Calif.) with excitation wavelength of 514 nm and collecting emissions over the range of 550 nm to 750 nm at room temperature. […] The pH was adjusted using 0.1 N HCl or NaOH, starting from pH 7 to either the higher or lower limit of pH and back. All spectra were corrected for dilution.
A more quantitative analyses of these changes in fluorescence intensity may be carried out using the modified Henderson-Hasselbalch equation. For a dye with dual wavelength emissions, the ratio of fluorescence intensity over a given pH range elucidates the dye's pKa as:
where Ri is the fluorescence intensity ratio of the two wavelengths (582 nm and 635 nm) at pHi, Rmin and Rmax are the minimum and maximum limiting values of Ri, respectively. The value of I(A)/I(B) is obtained from the emission intensities at 635 nm for the limiting acidic, I(A), and basic, I(B), pH regions. In practice, to elucidate the pKa of each sample, first the pH1/2 value, at which (Ri−Rmin)=(Rmax−Ri) or R1/2=(½) (Rmax+Rmin) was determined to make the second term of the right hand side of equation equal to zero. The value of pH1/2 was then subtracted by log(I(A)/I(B)) to estimate the pKa value.
To estimate the pH1/2 and I(A)/I(B) from the experiment, the fluorescence intensity changes at 635 nm and 582 nm, and their ratios were plotted against the pH values as shown in FIG. 4B. For elucidation of both pH1/2 and I(A)/I(B), it is important to note that well defined limiting intensities at both extreme ends of acidic and basic pHs must be available. Furthermore, the spectral changes shown in each of FIG. 4A should have a well defined isoemissive point to assure that the integrity of spectral chromophores is maintained throughout the entire pH range. Once pH1/2, Rmin, Rmax, and I(A)/I(B) are determined, the value for “c” may be estimated from the least squares fit of the equation to the experimental results shown as filled circles in FIG. 4B.

Series [3] is described as follows: Stopped flow kinetics of fluorescence response to pH change. Format: physicochemical. How it is done: The time dependent response of cSNARF-1 solution and nanoreactors to the pH change was measured at 20° C. using an RX2000 Stopped-Flow Mixing Accessory (Applied Photophysics Limited, Leatherhead, UK) attached to the Cary Eclipse fluorescence spectrophotometer. The mixing time of this system is reported to be 8 msec, and the response time of Eclipse is 1 msec. To estimate the response time of the nanoreactors, they were first adjusted to pH 10 then mixed with a 50 mM phosphate buffer solution at pH 2. By exciting cSNARF-1 at 514 nm during this process, the pH-responsive fluorescence change at 582 nm was recorded.

The conditions of series [4]: at room temperature; cited from earlier work.
Where [5] appears, read: solvent Water, excitation 514 nm.

Take “5-(and-6)-Carboxy-seminaphthorhodafluor-1 [cSNARF-1]”: in series [1], the “loss of fluorescence intensity” value is recorded as 30%. In addition, the Acidic peak is 584 nm in series [2] (solvent 1.5% IgG sln) and 581 nm in series [2] (setting [5]). Besides, the Basic peak in series [2] (solvent 1.5% IgG sln) and in series [2] (setting [5]) was 633 nm in each case. In addition, the c is given as −0.78 in series [2] (solvent 1.5% IgG sln) and −1.17 in series [2] (solvent Water, least squares fit of Equation 1). For the same substance, the “log{I[A]/I[B]}” value in series [2] (solvent 1.5% IgG sln) is −0.47; in series [2] (solvent Water, emission intensities at 635 nm, limiting acidic and basic pH), −0.31. Further, the “pH 1/2” value was found to be 7.25 in series [2] (solvent 1.5% IgG sln) and 7.15 in series [2] (solvent Water, excitation 514 nm, room temperature). Besides, the results for the pKa in series [2] (solvent 1.5% IgG sln), in series [2] (solvent Water) and in series [4] were 7.72, 7.46 and 7.5, respectively. In addition, in series [3] (pH change from pH 10 to 5, average of three traces (FIG. 7 legend)), the “time for change in fluorescence intensity (67%)” value amounted to 175 ms. Moreover, the “time for 65% change in fluorescence intensity (t65%)” value in series [3] (response to pH change, average of three traces, 20° C., excitation 514 nm, emission 582 nm) came out at 175 ms.
